The target of this assay is ALK2 (Homo sapiens (Human), UniProt Q04771). Description: ALK2 inhibition, LanthaScreen Eu Kinase Binding Assay (ThermoFisher Scientific / Life Technologies). The note with it: read-out: Measured Ki (IC50) Value for Compounds: IC50. On the procedure:
Biochemical assays to measure the inhibitory effects of the compounds were performed by ThermoFisher Scientific (Life Technologies). ALK2 inhibition was tested using LanthaScreen™ Eu Kinase Binding Assay screening protocol.
(TR-FRET usually uses a lanthanide donor and a delayed reading to cut background.)
Chain of ALK2 (Q04771 21-509): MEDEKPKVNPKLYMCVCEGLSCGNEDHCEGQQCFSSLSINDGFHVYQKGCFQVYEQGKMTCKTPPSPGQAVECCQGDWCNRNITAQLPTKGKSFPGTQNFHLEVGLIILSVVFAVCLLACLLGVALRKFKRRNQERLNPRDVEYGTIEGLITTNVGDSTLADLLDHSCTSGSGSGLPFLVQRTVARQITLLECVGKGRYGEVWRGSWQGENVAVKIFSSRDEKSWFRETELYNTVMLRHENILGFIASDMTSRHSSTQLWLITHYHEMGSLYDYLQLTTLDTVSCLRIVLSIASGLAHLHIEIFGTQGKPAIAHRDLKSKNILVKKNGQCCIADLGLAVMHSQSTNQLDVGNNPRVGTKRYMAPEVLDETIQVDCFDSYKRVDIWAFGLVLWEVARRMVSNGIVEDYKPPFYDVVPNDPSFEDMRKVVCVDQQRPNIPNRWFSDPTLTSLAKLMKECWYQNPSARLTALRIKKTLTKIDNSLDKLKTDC
For `COc1cc(-n2cnc(Nc3nc4c(c(N5CCC[C@H]5CO)n3)CN(C(=O)[C@@H]3CCC(=O)N3)CC4)c2)cc(OC)c1OC` [Compound 240a, (S)-5-(4-((S)-2-(hydroxymethyl)pyrrolidin-1-yl)-2-((1-(3,4,5-trimethoxyphenyl)-1H-imidazol-4-yl)amino)-5,6,7,8-tetrahydropyrido[4,3-d]pyrimidine-6-carbonyl)pyrrolidin-2-one], the IC50 was less than 100 nM.
Turning to `COc1cc(-n2cnc(Nc3nc4c(c(N5CCC[C@H]5CO)n3)CN(C(=O)c3ccc(C#N)cc3)CC4)c2)cc(OC)c1OC` [Compound 241a, (S)-4-(4-(2-(hydroxymethyl)pyrrolidin-1-yl)-2-((1-(3,4,5-trimethoxyphenyl)-1H-imidazol-4-yl)amino)-5,6,7,8-tetrahydropyrido[4,3-d]pyrimidine-6-carbonyl)benzonitrile], the 50% inhibitory concentration (IC50) was less than 100 nM.
Turning to `COc1cc(OC)cc(-n2cnc(Nc3nc(N4CCC[C@H]4CO)c4cccn4n3)c2)c1` [Compound 242a, (S)-(1-(2-((1-(3,5-dimethoxyphenyl)-1H-imidazol-4-yl)amino)pyrrolo[2,1-f][1,2,4]triazin-4-yl)pyrrolidin-2-yl)methanol], the IC50 fell in the range of 100 to 1000 nM.
For `COc1ccc(-n2cnc(Nc3nc(N4CCC[C@H]4CO)c4cccn4n3)c2)cc1OC` [Compound 243a, (S)-(1-(2-((1-(3,4-dimethoxyphenyl)-1H-imidazol-4-yl)amino)pyrrolo[2,1-f][1,2,4]triazin-4-yl)pyrrolidin-2-yl)methanol] the value was 100 to 1000 nM; for `COc1cc(-n2cnc(Nc3nc(N4CCC[C@H]4CO)c4ccc(OC(C)C)cc4n3)c2)cc(OC)c1OC` [Compound 244b, (S)-(1-(7-isopropoxy-2-((1-(3,4,5-trimethoxyphenyl)-1H-imidazol-4-yl)amino)quinazolin-4-yl)pyrrolidin-2-yl)methanol], less than 100 nM; for `COc1cc(-n2cnc(Nc3nc(N4CCC[C@H]4C(N)=O)nn4c(CN5CCNCC5)ccc34)c2)cc(OC)c1OC` [Compound 245c, (S)-1-(7-(piperazin-1-ylmethyl)-4-((1-(3,4,5-trimethoxyphenyl)-1H-imidazol-4-yl)amino)pyrrolo[2,1-f][1,2,4]triazin-2-yl)pyrrolidine-2-carboxamide], less than 100 nM.
Consider `COc1cc(-n2cnc(Nc3nc(N4CC[C@@H](CO)C4)nc4ccoc34)c2)cc(OC)c1OC` [Compound 246a, (R)-(1-(4-((1-(3,4,5-trimethoxyphenyl)-1H-imidazol-4-yl)amino)furo[3,2-d]pyrimidin-2-yl)pyrrolidin-3-yl)methanol], for which the IC50 was less than 100 nM.
Take `COc1cc(-n2cnc(Nc3nc(N4CCC[C@H]4C(=O)NC4CC4)nc4ccoc34)c2)cc(OC)c1OC` [Compound 247b, (S)—N-cyclopropyl-1-(4-((1-(3,4,5-trimethoxyphenyl)-1H-imidazol-4-yl)amino)furo[3,2-d]pyrimidin-2-yl)pyrrolidine-2-carboxamide]: the IC50 was less than 100 nM.
Consider `COc1cc(-n2cnc(Nc3nc(N4CCC[C@H]4C(=O)NCC4CC4)nc4ccoc34)c2)cc(OC)c1OC` [Compound 248a, (S)—N-(cyclopropylmethyl)-1-(4-((1-(3,4,5-trimethoxyphenyl)-1H-imidazol-4-yl)amino)furo[3,2-d]pyrimidin-2-yl)pyrrolidine-2-carboxamide], for which the IC50 was less than 100 nM.
Take `COc1cc(Cl)cc(-n2cnc(Nc3nc(N4CCC[C@H]4CO)c4cccn4n3)c2)c1` [Compound 249d, (S)-(1-(2-((1-(3-chloro-5-methoxyphenyl)-1H-imidazol-4-yl)amino)pyrrolo[2,1-f][1,2,4]triazin-4-yl)pyrrolidin-2-yl)methanol]: the IC50 is 100 to 1000 nM.
As to `COc1cc(-n2cnc(Nc3nc(N4CCC[C@H]4CO)c4cccn4n3)c2)ccc1Cl` [Compound 250d, (S)-(1-(2-((1-(4-chloro-3-methoxyphenyl)-1H-imidazol-4-yl)amino)pyrrolo[2,1-f][1,2,4]triazin-4-yl)pyrrolidin-2-yl)methanol], the IC50 was more than 1000 nM.
In the case of `COc1cc(-n2cnc(Nc3nc(N4CC[C@@H](N(C)C)C4)nc4ccoc34)c2)cc(OC)c1OC` [Compound 251a, (R)-2-(3-(dimethylamino)pyrrolidin-1-yl)-N-(1-(3,4,5-trimethoxyphenyl)-1H-imidazol-4-yl)furo[3,2-d]pyrimidin-4-amine], the IC50 was less than 100 nM.
As to `CNC(=O)[C@@H]1CCCN1c1nc(Nc2cn(-c3cc(OC)c(OC)c(OC)c3)cn2)c2occc2n1` [Compound 252a, (S)—N-methyl-1-(4-((1-(3,4,5-trimethoxyphenyl)-1H-imidazol-4-yl)amino)furo[3,2-d]pyrimidin-2-yl)pyrrolidine-2-carboxamide], the IC50 was less than 100 nM.
For `COc1cc(-n2cnc(Nc3nc(N4CCC[C@H]4C(N)=O)nc4cnn(C)c34)c2)cc(OC)c1OC` [Compound 253c, (S)-1-(1-methyl-7-((1-(3,4,5-trimethoxyphenyl)-1H-imidazol-4-yl)amino)-1H-pyrazolo[4,3-d]pyrimidin-5-yl)pyrrolidine-2-carboxamide], the half-inhibitory concentration (IC50) was more than 1000 nM.
For the molecule `COc1cc(-n2cnc(Nc3nc(N4CCC[C@H]4CO)nc4c3CCN(CCC(N)=O)C4)c2)cc(OC)c1OC` [Compound 254a, (S)-3-(2-(2-(hydroxymethyl)pyrrolidin-1-yl)-4-((1-(3,4,5-trimethoxyphenyl)-1H-imidazol-4-yl)amino)-5,6-dihydropyrido[3,4-d]pyrimidin-7(8H)-yl)propanamide], the IC50 was less than 100 nM.
As for `COc1cc(-n2cnc(Nc3nc(N4CCC[C@H]4C(N)=O)nc4c3CCN(CCC(N)=O)C4)c2)cc(OC)c1OC` [Compound 255a, (S)-1-(7-(3-amino-3-oxopropyl)-4-((1-(3,4,5-trimethoxyphenyl)-1H-imidazol-4-yl)amino)-5,6,7,8-tetrahydropyrido[3,4-d]pyrimidin-2-yl)pyrrolidine-2-carboxamide], the half-inhibitory concentration (IC50) is less than 100 nM.
Consider `CCOc1ccc(-n2cnc(Nc3nc(N4CCC[C@H]4CO)c4cccn4n3)c2)cc1OCC` [Compound 256d, (S)-(1-(2-((1-(3,4-diethoxyphenyl)-1H-imidazol-4-yl)amino)pyrrolo[2,1-f][1,2,4]triazin-4-yl)pyrrolidin-2-yl)methanol], for which the IC50 is more than 1000 nM.
Consider `COc1cc(C)cc(-n2cnc(Nc3nc(N4CCC[C@H]4CO)c4cccn4n3)c2)c1` [Compound 257d, (S)-(1-(2-((1-(3-methoxy-5-methylphenyl)-1H-imidazol-4-yl)amino)pyrrolo[2,1-f][1,2,4]triazin-4-yl)pyrrolidin-2-yl)methanol], for which the IC50 was 100 to 1000 nM.
Regarding `COc1cc(-n2cnc(Nc3nc(N4CCC[C@H]4CO)c4cccn4n3)c2)ccc1C#N` [Compound 258d, (S)-4-(4-((4-(2-(hydroxymethyl)pyrrolidin-1-yl)pyrrolo[2,1-f][1,2,4]triazin-2-yl)amino)-1H-imidazol-1-yl)-2-methoxybenzonitrile], the IC50 is more than 1000 nM.
`COc1cc(-n2cnc(Nc3nc(N4CCC[C@H]4CO)c4ccc(C(=O)N5CCCCC5)n4n3)c2)cc(OC)c1OC` [Compound 259d, (S)-(4-(2-(hydroxymethyl)pyrrolidin-1-yl)-2-((1-(3,4,5-trimethoxyphenyl)-1H-imidazol-4-yl)amino)pyrrolo[2,1-f][1,2,4]triazin-7-yl)(piperidin-1-yl)methanone]: the IC50 is less than 100 nM.
`COc1cc(-n2cnc(Nc3nc(N4CCC(F)(F)C4)nc4ccoc34)c2)cc(OC)c1OC` [Compound 260a, 2-(3,3-difluoropyrrolidin-1-yl)-N-(1-(3,4,5-trimethoxyphenyl)-1H-imidazol-4-yl)furo[3,2-d]pyrimidin-4-amine]: the IC50 was less than 100 nM.
As to `COc1cc(-n2cnc(Nc3nc(N4CC[C@H](N(C)C)C4)nc4ccoc34)c2)cc(OC)c1OC` [Compound 261a, (S)-2-(3-(dimethylamino)pyrrolidin-1-yl)-N-(1-(3,4,5-trimethoxyphenyl)-1H-imidazol-4-yl)furo[3,2-d]pyrimidin-4-amine], the IC50 is less than 100 nM.
On to `OC[C@@H]1CCCN1c1nc(Nc2cn(-c3cccc(OC(F)(F)F)c3)cn2)nn2cccc12` [Compound 262d, (S)-(1-(2-((1-(3-(trifluoromethoxy)phenyl)-1H-imidazol-4-yl)amino)pyrrolo[2,1-f][1,2,4]triazin-4-yl)pyrrolidin-2-yl)methanol], for which the IC50 is more than 1000 nM.
Turning to `Cc1cc(OC(F)(F)F)cc(-n2cnc(Nc3nc(N4CCC[C@H]4CO)c4cccn4n3)c2)c1` [Compound 263d, (S)-(1-(2-((1-(3-methyl-5-(trifluoromethoxy)phenyl)-1H-imidazol-4-yl)amino)pyrrolo[2,1-f][1,2,4]triazin-4-yl)pyrrolidin-2-yl)methanol], the IC50 was more than 1000 nM.
For `COc1cc(-n2cnc(Nc3nc4c(c(N5CCC[C@@H]5CO)n3)CCCC4)c2)cc(OC)c1OC` [Compound 264b, (R)-(1-(2-((1-(3,4,5-trimethoxyphenyl)-1H-imidazol-4-yl)amino)-5,6,7,8-tetrahydroquinazolin-4-yl)pyrrolidin-2-yl)methanol] the value was less than 100 nM.
`COc1cc(-n2cnc(Nc3nc(N(C)C4CCN(C)CC4)nc4ccoc34)c2)cc(OC)c1OC` [Compound 265a, N2-methyl-N2-(1-methylpiperidin-4-yl)-N4-(1-(3,4,5-trimethoxyphenyl)-1H-imidazol-4-yl)furo[3,2-d]pyrimidine-2,4-diamine]: the IC50 is less than 100 nM.
As to `COc1cc(-n2cnc(Nc3nc(N4CCC[C@H]4C(N)=O)nc4cc(F)ccc34)c2)cc(OC)c1OC` [Compound 266c, (S)-1-(7-fluoro-4-((1-(3,4,5-trimethoxyphenyl)-1H-imidazol-4-yl)amino)quinazolin-2-yl)pyrrolidine-2-carboxamide], the half-inhibitory concentration (IC50) is less than 100 nM.
Consider `COc1c(O)cc(-n2cnc(Nc3nc(N4CCC[C@H]4CO)nn4cccc34)c2)cc1C(=O)NCC1CC1` [Compound 267i, (S)—N-(cyclopropylmethyl)-3-hydroxy-5-(4-((2-(2-(hydroxymethyl)pyrrolidin-1-yl)pyrrolo[2,1-f][1,2,4]triazin-4-yl)amino)-1H-imidazol-1-yl)-2-methoxybenzamide], for which the IC50 lay within 100 to 1000 nM.

The IC50 is the midpoint of a concentration-inhibition curve.

Values taken from patent US11661426B2, “Imidazole-containing inhibitors of ALK2 kinase” (BioCryst Pharmaceuticals, Inc., priority 2017, dated 2023).
